# Biological target: T1, Dimer of Gag-Pol polyprotein [489-587] (Human immunodeficiency virus 1, UniProt P12497)
# T1 construct: 489-587
# Test: Protease Inhibition Assay
# Experimental: For determination of IC50 values, HIV-1 protease was added to assay buffer containing inhibitor and the substrate (H-His-Lys-Ala-Arg-Val-Leu- (p-NO2) Phe-Glu-Ala-norleucine-Ser-NH2). The Leu- (p-NO2) Phe bond of the substrate was cleaved by the enzyme, and the substrate and products were separated by reversed-phase HPLC. Absorbance was measured at 220 nm, peak areas were determined, and percentage conversion to product was calculated.
SMILES,"IC50 (pH 6.2, 37 °C) [nM]",IC50 [nM],other results
Cc1cc(SC2C(=O)CC(CCc3ccccc3)(C(C)C)OC2=O)c(C(C)(C)C)cc1O (stereo not drawn),,,Ki: 1.1 nM
"Cc1cc(SC2C(=O)CC(CCc3ccc(O)cc3)(C3CCCCC3)OC2=O)c(C(C)(C)C)cc1O (stereo not drawn) [3-(2-tert-Butyl-4-hydroxy-5-methyl-phenylsulfanyl)-6-cyclohexyl-4-hydroxy-6-[2-(4-hydroxy-phenyl)-ethyl]-5,6-dihydro-pyran-2-one]",2.9,,
"COCOCCOc1cc(C(C)(C)C)c(SC2C(=O)CC(C)(CCc3ccc(O)cc3)OC2=O)cc1C (stereo not drawn) [3-({2-tert-butyl-4-[2-(methoxymethoxy)ethoxy]-5-methylphenyl}sulfanyl)-4-hydroxy-6-[2-(4-hydroxyphenyl)ethyl]-6-methyl-5,6-dihydro-2H-pyran-2-one]",,20,
"Cc1ccc(C(C)(C)C)c(SC2C(=O)CC(CCc3ccccc3)(C(C)C)OC2=O)c1 (stereo not drawn) [3-[(2-tert-butyl-5-methylphenyl)sulfanyl]-4-hydroxy-6-(2-phenylethyl)-6-(propan-2-yl)-5,6-dihydro-2H-pyran-2-one]",,1.1,
"Cc1ccc(C(C)(C)C)c(SC2C(=O)CC(CCc3ccc(O)cc3)OC2=O)c1 (stereo not drawn) [3-[(2-tert-butyl-5-methylphenyl)sulfanyl]-4-hydroxy-6-[2-(4-hydroxyphenyl)ethyl]-5,6-dihydro-2H-pyran-2-one]",338,,
"CCCC1(CCc2ccc(O)cc2)CC(=O)C(Sc2cc(C)ccc2C(C)(C)C)C(=O)O1 (stereo not drawn) [3-[(2-tert-butyl-5-methylphenyl)sulfanyl]-4-hydroxy-6-[2-(4-hydroxyphenyl)ethyl]-6-propyl-5,6-dihydro-2H-pyran-2-one]",19,,
"Cc1ccc(C(C)(C)C)c(SC2C(=O)CC(CCc3ccc(O)cc3)(C3CCCCC3)OC2=O)c1 (stereo not drawn) [3-[(2-tert-butyl-5-methylphenyl)sulfanyl]-6-cyclohexyl-4-hydroxy-6-[2-(4-hydroxyphenyl)ethyl]-5,6-dihydro-2H-pyran-2-one]",33,,
"Cc1cc(SC2C(=O)CC(CCc3ccccc3)(C(C)C)OC2=O)c(C(C)(C)C)cc1OCCO (stereo not drawn) [3-{[2-tert-butyl-4-(2-hydroxyethoxy)-5-methylphenyl]sulfanyl}-4-hydroxy-6-(2-phenylethyl)-6-(propan-2-yl)-5,6-dihydro-2H-pyran-2-one]",,2.6,
"CCCCCC1(CCc2ccc(O)cc2)CC(=O)C(Sc2cc(C)c(OCCO)cc2C(C)(C)C)C(=O)O1 (stereo not drawn) [3-{[2-tert-butyl-4-(2-hydroxyethoxy)-5-methylphenyl]sulfanyl}-4-hydroxy-6-[2-(4-hydroxyphenyl)ethyl]-6-pentyl-5,6-dihydro-2H-pyran-2-one]",,2.9,
"CCCC1(CCc2ccc(O)cc2)CC(=O)C(Sc2cc(C)c(OCCO)cc2C(C)(C)C)C(=O)O1 (stereo not drawn) [3-{[2-tert-butyl-4-(2-hydroxyethoxy)-5-methylphenyl]sulfanyl}-4-hydroxy-6-[2-(4-hydroxyphenyl)ethyl]-6-propyl-5,6-dihydro-2H-pyran-2-one]",,6,
"Cc1cc(SC2C(=O)CC(CCc3ccc(O)cc3)(C3CCCC3)OC2=O)c(C(C)(C)C)cc1OCCO (stereo not drawn) [3-{[2-tert-butyl-4-(2-hydroxyethoxy)-5-methylphenyl]sulfanyl}-6-cyclopentyl-4-hydroxy-6-[2-(4-hydroxyphenyl)ethyl]-5,6-dihydro-2H-pyran-2-one]",,2.8,
"Cc1cc(SC2C(=O)CC(CCc3ccccc3)(C(C)C)OC2=O)c(C(C)(C)C)cc1CO (stereo not drawn) [3-{[2-tert-butyl-4-(hydroxymethyl)-5-methylphenyl]sulfanyl}-4-hydroxy-6-(2-phenylethyl)-6-(propan-2-yl)-5,6-dihydro-2H-pyran-2-one]",,2.2,
"Cc1cc(SC2C(=O)CC(CCc3ccc(O)cc3)(CC(C)C)OC2=O)c(C(C)(C)C)cc1CO (stereo not drawn) [3-{[2-tert-butyl-4-(hydroxymethyl)-5-methylphenyl]sulfanyl}-4-hydroxy-6-[2-(4-hydroxyphenyl)ethyl]-6-(2-methylpropyl)-5,6-dihydro-2H-pyran-2-one]",3.3,,
"Cc1cc(SC2C(=O)CC(CCc3ccc(O)cc3)(C(C)C)OC2=O)c(C(C)(C)C)cc1CO (stereo not drawn) [3-{[2-tert-butyl-4-(hydroxymethyl)-5-methylphenyl]sulfanyl}-4-hydroxy-6-[2-(4-hydroxyphenyl)ethyl]-6-(propan-2-yl)-5,6-dihydro-2H-pyran-2-one]",,,"Ki (pH 6.2, 37 °C): 0.17 nM"
"CCCCCC1(CCc2ccc(O)cc2)CC(=O)C(Sc2cc(C)c(CO)cc2C(C)(C)C)C(=O)O1 (stereo not drawn) [3-{[2-tert-butyl-4-(hydroxymethyl)-5-methylphenyl]sulfanyl}-4-hydroxy-6-[2-(4-hydroxyphenyl)ethyl]-6-pentyl-5,6-dihydro-2H-pyran-2-one]",5.9,,
"CCCC1(CCc2ccc(O)cc2)CC(=O)C(Sc2cc(C)c(CO)cc2C(C)(C)C)C(=O)O1 (stereo not drawn) [3-{[2-tert-butyl-4-(hydroxymethyl)-5-methylphenyl]sulfanyl}-4-hydroxy-6-[2-(4-hydroxyphenyl)ethyl]-6-propyl-5,6-dihydro-2H-pyran-2-one]",2.6,,
"Cc1cc(SC2C(=O)CC(CCc3ccc(O)cc3)(C3CCC3)OC2=O)c(C(C)(C)C)cc1CO (stereo not drawn) [3-{[2-tert-butyl-4-(hydroxymethyl)-5-methylphenyl]sulfanyl}-6-cyclobutyl-4-hydroxy-6-[2-(4-hydroxyphenyl)ethyl]-5,6-dihydro-2H-pyran-2-one]",2.2,,
"Cc1cc(SC2C(=O)CC(CCc3ccc(O)cc3)(C3CCCC3)OC2=O)c(C(C)(C)C)cc1CO (stereo not drawn) [3-{[2-tert-butyl-4-(hydroxymethyl)-5-methylphenyl]sulfanyl}-6-cyclopentyl-4-hydroxy-6-[2-(4-hydroxyphenyl)ethyl]-5,6-dihydro-2H-pyran-2-one]",3.1,,
"Cc1cc(SC2C(=O)CC(CCc3ccc(N)cc3)(CC(C)C)OC2=O)c(C(C)(C)C)cc1CO (stereo not drawn) [6-[2-(4-aminophenyl)ethyl]-3-{[2-tert-butyl-4-(hydroxymethyl)-5-methylphenyl]sulfanyl}-4-hydroxy-6-(2-methylpropyl)-5,6-dihydro-2H-pyran-2-one]",,2.9,
"Cc1cc(SC2C(=O)CC(CCc3ccc(N)cc3)(C(C)C)OC2=O)c(C(C)(C)C)cc1CO (stereo not drawn) [6-[2-(4-aminophenyl)ethyl]-3-{[2-tert-butyl-4-(hydroxymethyl)-5-methylphenyl]sulfanyl}-4-hydroxy-6-(propan-2-yl)-5,6-dihydro-2H-pyran-2-one]",,,Ki: 0.43 nM
"CCCCC1(CCc2ccc(O)cc2)CC(=O)C(Sc2cc(C)c(OCCO)cc2C(C)(C)C)C(=O)O1 (stereo not drawn) [6-butyl-3-{[2-tert-butyl-4-(2-hydroxyethoxy)-5-methylphenyl]sulfanyl}-4-hydroxy-6-[2-(4-hydroxyphenyl)ethyl]-5,6-dihydro-2H-pyran-2-one]",,6.4,
"CCCCC1(CCc2ccc(O)cc2)CC(=O)C(Sc2cc(C)c(CO)cc2C(C)(C)C)C(=O)O1 (stereo not drawn) [6-butyl-3-{[2-tert-butyl-4-(hydroxymethyl)-5-methylphenyl]sulfanyl}-4-hydroxy-6-[2-(4-hydroxyphenyl)ethyl]-5,6-dihydro-2H-pyran-2-one]",4.1,,
"Cc1cc(SC2C(=O)CC(CCc3ccc(O)cc3)(C(C)C)OC2=O)c(C(C)(C)C)cc1OCCO (stereo not drawn) [(3-(2-tert-Butyl-4-(2-hydroxy-ethoxy)-5-methyl-phenylsulfanyl)-4-hydroxy-6-[2-(4-hydroxy-phenyl)-ethyl]-6-isopropyl-5,6-dihydro-pyran-2-one]",,2.8,
